# Target: T1, wild-type HIV-1 protease (Human immunodeficiency virus type 1 group M subtype B, UniProt P04585)
# T1 construct: Escherichia coli expressed wild-type HIV-1 protease protein
# Assay: Assay for Inhibition of Microbial Expressed HIV Protease (peptide substrate cleavage, LC-MS/MS readout)
# Assay type: biochemical
# Conditions: E. coli expressed wild-type HIV-1 protease, mean of at least two independent experiments, read-out: HIV Pr Enzyme HIV1 PR IC50
# Method in brief: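 Cleavage of Val-Ser-Gln-Asn-(β-naphthyl)Ala-Pro-Ile-Val (400 μM) by recombinant HIV-1 protease ([…]) ran 1 h at 30 °C after a 30 min room-temperature inhibitor preincubation in 50 mM sodium acetate pH 5.5. Product peak areas by LC-MS/MS gave inhibition; values average at least two independent runs.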
row,Structure (SMILES),IC50 [nM]
1,"CC(C)CCC1(c2ccccc2)NC(=N)N(Cc2cccc(C(=O)N3Cc4cnc(C#N)nc4C3)c2)C1=O (centres unmarked) [Compound 191, 6-[(3-{[2-imino-4-(3-methylbutyl)-5-oxo-4-phenylimidazolidin-1-yl]methyl}phenyl)carbonyl]-6,7-dihydro-5H-pyrrolo[3,4-d]pyrimidine-2-carbonitrile]",4.17
2,"N=C1NC(c2ccc(F)cc2)(c2ccc(F)cc2)C(=O)N1Cc1cccc(C(=O)N2Cc3cccc(F)c3C2)c1 [Compound 196, 3-{3-[(4-fluoro-1,3-dihydro-2H-isoindol-2-yl)carbonyl]benzyl}-5,5-bis (4-fluorophenyl)-2-iminoimidazolidin-4-one]",31.6
3,"CC(=O)c1cccc(-c2ncc3c(n2)CN(C(=O)c2cc(CN4C(=N)N[C@](CCCC(F)(F)F)(c5ccc(F)cc5)C4=O)ccc2C(F)(F)F)C3)c1 [Compound 59, (5R)-3-[3-{[2-(3-acetylphenyl)-5,7-dihydro-6H-pyrrolo[3,4-d]pyrimidin-6-yl]carbonyl}-4-(trifluoromethyl)benzyl]-5-(4-fluorophenyl)-2-imino-5-(4,4,4-trifluorobutyl)imidazolidin-4-one]",6.45
4,"N=C1N[C@](CCCC(F)(F)F)(c2ccc(F)cc2)C(=O)N1Cc1ccc(C(F)(F)F)c(C(=O)N2Cc3cnc(N4CCCC4)nc3C2)c1 [Compound 106, (5R)-5-(4-fluorophenyl)-2-imino-3-{3-[(2-pyrrolidin-1-yl-5,7-dihydro-6H-pyrrolo[3,4-d]pyrimidin-6-yl)carbonyl]-4-(trifluoromethyl)-benzyl}-5-(4,4,4-trifluorobutyl)-imidazolidin-4-one]",25.4
5,"CC(C)CCC1(c2ccc(F)cc2)NC(=N)N(Cc2cccc(C(=O)N3Cc4ccccc4C3)c2)C1=O (centres unmarked) [Compound 229, 3-[3-(1,3-dihydro-2H-isoindol-2-ylcarbonyl)benzyl]-5-(4-fluorophenyl)-2-imino-5-(3-methylbutyl)imidazolidin-4-one]",13.1
6,"N=C1N[C@](CCCC(F)(F)F)(c2ccc(F)cc2)C(=O)N1Cc1ccc(C(F)(F)F)c(C(=O)N2Cc3cnc(-c4cccnc4)nc3C2)c1 [Compound 47, (5R)-5-(4-fluorophenyl)-2-imino-3-{3-[(2-pyridin-3-yl-5,7-dihydro-6H-pyrrolo[3,4-d]pyrimidin-6-yl)carbonyl]-4-(trifluoromethyl)-benzyl}-5-(4,4,4-trifluorobutyl)-imidazolidin-4-one]",4.91
7,"C[C@H](c1cccc(C(=O)N2Cc3nccnc3C2)c1)N1C(=N)NC(c2ccc(F)cc2)(c2ccc(F)cc2)C1=O [Compound 186, 3-{(1R)-1-[3-(5,7-dihydro-6H-pyrrolo[3,4-b]pyrazin-6-ylcarbonyl)phenyl]ethyl}-5,5-bis(4-fluorophenyl)-2-iminoimidazolidin-4-one]",3.24
8,"N=C1NC(c2ccccc2)(c2ccc(-c3ccccc3)cc2)C(=O)N1Cc1cccc(C(=O)N2Cc3ccccc3C2)c1 (centres unmarked) [Compound 273, 5-biphenyl-4-yl-3-[3-(1,3-dihydro-2H-isoindol-2-ylcarbonyl)benzyl]-2-imino-5-phenylimidazolidin-4-one]",28.5
9,"N=C1NC(c2ccccc2)(c2ccccc2)C(=O)N1Cc1ccc(C(F)(F)F)c(C(=O)N2Cc3cncnc3C2)c1 [Compound 145, 3-[3-(5,7-dihydro-6H-pyrrolo[3,4-d]pyrimidin-6-ylcarbonyl)-4-(trifluoromethyl)benzyl]-2-imino-5,5-diphenylimidazolidin-4-one]",4.03
10,"CC(C)(C)NC(=O)c1nnc2n1CCN(C(=O)c1cccc(CN3C(=N)NC(c4ccccc4)(c4ccccc4)C3=O)c1)C2 [Compound 361, N-tert-butyl-7-({3-[(2-imino-5-oxo-4,4-diphenylimidazolidin-1-yl)methyl]phenyl}carbonyl)-5,6,7,8-tetrahydro[1,2,4]triazolo[4,3-a]pyrazine-3-carboxamide]",96.1
11,"N#Cc1ncc2c(n1)CN(C(=O)c1cc(CN3C(=N)NC(c4ccc(F)cc4)(c4ccc(F)cc4)C3=O)ccc1C(F)(F)F)C2 [Compound 134, 6-{[5-{[4,4-bis(4-fluorophenyl)-2-imino-5-oxoimidazolidin-1-yl]methyl}-2-(trifluoromethyl)-phenyl]carbonyl}-6,7-dihydro-5H-pyrrolo[3,4-d] pyrimidine-2-carbonitrile]",1.08
12,"N=C1NC(c2ccccc2)(c2ccccc2)C(=O)N1Cc1ccc(C(F)(F)F)c(C(=O)N2CCN(c3ncccn3)CC2)c1 [Compound 171, 2-imino-5,5-diphenyl-3-{3-[(4-pyrimidin-2-ylpiperazin-1-yl)carbonyl]-4-(trifluoromethyl)-benzyl}imidazolidin-4-one]",53
13,"N=C1N[C@](CCCC(F)(F)F)(c2ccc(F)cc2)C(=O)N1Cc1ccc(C(F)(F)F)c(C(=O)N2CCn3nc(C4CC4)nc3C2)c1 [Compound 122, (5R)-3-{3-[(2-cyclopropyl-5,6-dihydro[1,2,4]triazolo[1,5-a]pyrazin-7(8H)-yl)carbonyl]-4-(trifluoromethyl)benzyl}-5-(4-fluorophenyl)-2-imino-5-(4,4,4-trifluorobutyl)imidazolidin-4-one]",48.1
14,"N=C1N[C@](CCC2CC2)(c2ccc(F)cc2)C(=O)N1C(CCc1ccccc1)c1ccc(C(F)(F)F)c(C(=O)N2Cc3nccnc3C2)c1 (stereo partly drawn) [Compound 3, (5R)-5-(2-cyclopropylethyl)-3-{1-[3-(5,7-dihydro-6H-pyrrolo[3,4-b]pyrazin-6-ylcarbonyl)-4-(trifluoromethyl)phenyl]-3-phenylpropyl}-5-(4-fluorophenyl)-2-iminoimidazolidin-4-one]",0.17
15,"Cn1cc(-c2ncc3c(n2)CN(C(=O)c2cc(CN4C(=N)N[C@](CCCC(F)(F)F)(c5ccc(F)cc5)C4=O)ccc2C(F)(F)F)C3)cn1 [Compound 15, (5R)-5-(4-fluorophenyl)-2-imino-3-[3-{[2-(1-methyl-1H-pyrazol-4-yl)-5,7-dihydro-6H-pyrrolo[3,4-d]pyrimidin-6-yl]carbonyl}-4-(trifluoromethyl)benzyl]-5-(4,4,4-trifluorobutyl)imidazolidin-4-one]",1.95
16,"N=C1NC(c2ccccc2)(c2ccccc2)C(=O)N1Cc1ccc(Cl)c(C(=O)N2Cc3cncnc3C2)c1 [Compound 374, 3-[4-chloro-3-(5,7-dihydro-6H-pyrrolo[3,4-d]pyrimidin-6-ylcarbonyl)benzyl]-2-imino-5,5-diphenylimidazolidin-4-one]",7.02
17,"CC(C)CCC1(c2ccccc2)NC(=N)N(Cc2cccc(C(=O)N3Cc4nccnc4C3)c2)C1=O (centres unmarked) [Compound 193, 3-[3-(5,7-dihydro-6H-pyrrolo[3,4-b]pyrazin-6-ylcarbonyl)benzyl]-2-imino-5-(3-methylbutyl)-5-phenylimidazolidin-4-one]",4.89
18,"COC(=O)N1CCN(C(=O)c2cccc(CN3C(=N)NC(c4ccc(F)cc4)(c4ccc(F)cc4)C3=O)c2)CC1 [Compound 305, methyl 4-[(3-{[4,4-bis(4-fluorophenyl)-2-imino-5-oxoimidazolidin-1-yl]methyl}phenyl)carbonyl] piperazine-1-carboxylate]",64.1
19,"C=CCOC(=O)N1CCN(C(=O)c2cc(CN3C(=N)N[C@](CCCC(F)(F)F)(c4ccc(F)cc4)C3=O)ccc2C(F)(F)F)CC1 [Compound 102, prop-2-en-1-yl 4-{[5-{[(4R)-4-(4-fluorophenyl)-2-imino-5-oxo-4-(4,4,4-trifluorobutyl)imidazolidin-1-yl]methyl}-2-(trifluoromethyl)-phenyl]carbonyl} piperazine-1-carboxylate]",23.2
20,N=C1NC(c2ccccc2)(c2ccccc2)C(=O)N1Cc1cc(F)cc(C(=O)N2CCn3c(nnc3C(F)(F)F)C2)c1 [Compound 341],77.5
21,"N#Cc1ncc2c(n1)CN(C(=O)c1ccnc(CN3C(=N)NC(c4ccccc4)(c4ccccc4)C3=O)c1)C2 [Compound 397, 6-({2-[(2-imino-5-oxo-4,4-diphenylimidazolidin-1-yl)methyl]pyridin-4-yl}carbonyl)-6,7-dihydro-5H-pyrrolo[3,4-d]pyrimidine-2-carbonitrile]",18.1
22,"COc1ccc(CN2C(=N)NC(c3ccccc3)(c3ccccc3)C2=O)cc1C(=O)N1Cc2ccccc2C1 [Compound 371, 3-[3-(1,3-dihydro-2H-isoindol-2-ylcarbonyl)-4-methoxybenzyl]-2-imino-5,5-diphenylimidazolidin-4-one]",29.5
23,"N=C1NC(c2ccc(F)cc2)(c2ccc(F)cc2)C(=O)N1Cc1cccc(C(=O)N2Cc3cnc(C(F)(F)F)nc3C2)c1 [Compound 211, 5,5-bis(4-fluorophenyl)-2-imino-3-(3-{[2-(trifluoromethyl)-5,7-dihydro-6H-pyrrolo[3,4-d]pyrimidin-6-yl]carbonyl}benzyl) imidazolidin-4-one]",29.1
24,"N=C1NC(c2ccc(F)cc2)(c2ccc(F)cc2)C(=O)N1Cc1ccc(Cl)c(C(=O)N2CCC(F)(F)C2)c1 [Compound 389, 3-{4-chloro-3-[(3,3-difluoropyrrolidin-1-yl)carbonyl]benzyl}-5,5-bis(4-fluorophenyl)-2-iminoimidazolidin-4-one]",98.5
25,"CC(C)CC[C@]1(c2ccccc2)NC(=N)N(Cc2cc(F)cc(C(=O)N3Cc4nccnc4C3)c2)C1=O [Compound 207, (5R)-3-[3-(5,7-dihydro-6H-pyrrolo[3,4-b]pyrazin-6-ylcarbonyl)-5-fluorobenzyl]-2-imino-5-(3-methylbutyl)-5-phenylimidazolidin-4-one]",8.35
26,"N=C1N[C@](CCCC(F)(F)F)(c2ccc(F)cc2)C(=O)N1Cc1ccc(C(F)(F)F)c(C(=O)N2Cc3cnc(-c4cnn(-c5cccc(Cl)c5)c4)nc3C2)c1 [Compound 133, (5R)-3-[3-({2-[1-(3-chlorophenyl)-1H-pyrazol-4-yl]-5,7-dihydro-6H-pyrrolo[3,4-d]pyrimidin-6-yl}carbonyl)-4-(trifluoromethyl)-benzyl]-5-(4-fluorophenyl)-2-imino-5-(4,4,4-trifluorobutyl)imidazolidin-4-one]",86.8

# — US20200069691A1, “HETEROCYCLIC COMPOUNDS AS HIV PROTEASE INHIBITORS” (Merck Sharp & Dohme Corp., priority 2016, published 2020)
